According to US6737423B2, “Substituted heterocyclo-norbornylamino derivatives, processes for their preparation, their use as medicaments or diagnostics, and medicaments comprising them” (Aventis Pharma Deutschland GmbH, priority 2000, dated 2004):
Structures can show the parent of a compound that is named as a salt.

How the values were obtained:
Rat NHE3 = biological target: T1, Rat NHE3 (Rattus norvegicus, UniProt P26433); assay: NHE activity measurement (pHi recovery after acid load, transfected LAP1 cells); type: cell-based; details: stably transfected LAP1 cells, pH recovery recorded for 3 minutes, BCECF
T1 construct: expressed in transfected cells; host or cells: LAP1 (NHE-deficient cell line), stably transfected with pMAMneo plasmid
T1 sequence (P26433 29-831): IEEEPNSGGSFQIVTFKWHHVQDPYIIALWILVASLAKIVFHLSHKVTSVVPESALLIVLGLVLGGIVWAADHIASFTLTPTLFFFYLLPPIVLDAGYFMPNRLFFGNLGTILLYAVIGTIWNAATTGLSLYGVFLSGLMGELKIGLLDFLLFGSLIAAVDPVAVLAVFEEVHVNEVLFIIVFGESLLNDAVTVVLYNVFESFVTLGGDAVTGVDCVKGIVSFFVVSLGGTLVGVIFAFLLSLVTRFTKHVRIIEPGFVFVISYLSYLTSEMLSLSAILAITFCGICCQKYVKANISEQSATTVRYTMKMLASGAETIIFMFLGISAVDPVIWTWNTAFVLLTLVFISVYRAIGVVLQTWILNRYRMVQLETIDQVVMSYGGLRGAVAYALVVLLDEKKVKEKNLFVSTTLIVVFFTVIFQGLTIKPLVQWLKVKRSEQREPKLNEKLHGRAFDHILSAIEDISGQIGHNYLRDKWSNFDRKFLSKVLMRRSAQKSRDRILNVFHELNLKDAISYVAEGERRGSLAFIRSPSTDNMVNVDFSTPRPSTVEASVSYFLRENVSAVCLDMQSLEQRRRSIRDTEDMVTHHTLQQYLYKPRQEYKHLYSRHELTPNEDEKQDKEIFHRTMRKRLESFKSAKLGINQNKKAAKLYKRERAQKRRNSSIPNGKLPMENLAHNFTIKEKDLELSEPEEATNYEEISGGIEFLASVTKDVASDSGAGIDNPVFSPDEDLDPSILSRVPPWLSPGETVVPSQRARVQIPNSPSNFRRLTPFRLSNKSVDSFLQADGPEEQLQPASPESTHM
Source text: In the context of our studies, stably transfected cell lines were produced that in each case expressed one of the following NHE subtypes: Human NHE1 (Sardet et al. Cell 56:271-280 (1989)), rabbit NHE2 (Tse et al.; J. Biol. Chem. 268:11917-11924 (1993)), human NHE3 (Brant et al. Am. J. Physiol. 269 (Cell Physiol. 38) C198-C206 (1995)), or rat NHE3 (Orlowski et al.; J. Biol. Chem. 267:9331-9339 (1992)).
The cDNA clones of the respective NHE subtypes obtained by Prof. Pouyssegur were, after addition of suitable linker sequences, cloned into the expression plasmid pMAMneo (obtainable, for example, via CLONTECH, Heidelberg) such that the recognition sequence for the restriction endonuclease Nhel of the plasmid was approximately 20-100 Basepairs before the start codon of the respective NHE subtype and that the total coding sequence was present in the construct. In the case of the human NHE3 obtained from human kidney mRNA by means of RT-PCR, the RT-PCR primers were selected such that the cDNA band obtained had cleavage sites suitable for pMAMneo at its ends.
Using the “calcium phosphate method” (described in chapter 9.1 of “Current Protocols in Molecular Biology”), the NHE-deficient cell line LAP1 (Franchi et al.; Proc. Natl. Acad. Sci. USA 83:9388-9392 (1986)) was transfected with the plasmids that received the respective coding sequences of the NHE subtypes. […]
In this test, the recovery of the intracellular pH (pHi) after an acidification, which in the case of functional NHE occurs even under bicarbonate-free conditions, was determined. For this, the pHi was determined using the pH-sensitive fluorescent dye BCECF (Calbiochem, where the precursor BCECF-AM is employed). […] The BCECF fluorescence was determined in a “Ratio Fluorescence Spectrometer” (Photon Technology International, South Brunswick, N.J., USA) at excitation wavelengths of 505 and 440 nm and an emission wavelength of 535 nm and converted into the pHi by means of calibration curves. […]

Caco-2 cell line = assay: Caco 2 model (transport through Caco-2 monolayers, absorbed fraction); type: in vitro ADME; details: apical to basolateral, pH 7.8, 37° C., test concentration 1 mM / 100 μM, from Papp via sigmoidal calibration curve
Method: The Caco-2 cell line was acquired from the American Type Culture Collection (ATCC) and maintained in Dulbecco's Modified Eagle medium (high glucose content), supplemented with nonessential amino acids, L-glutamine, penicillin/streptomycin, and 10% strength fetal calf serum. The Caco-2 cell line was then kept in an incubator under a 10% strength CO2 atmosphere at 95% strength relative humidity and 37° C. The cells were grown in cell culture flasks (175 cm^2). For the transport investigations, the Caco-2 cells were inoculated into polycarbonate cell culture inserts (costar Transwells®, pore size: 3 μm, area: 4.71 cm^2) at a cell density of 6.5×10^4 cells/cm^2 and incubated in six-well culture plates with a change of medium after 4 and 8 days and then every second day thereafter. 21 to 25 day-old monolayers were used for the experiments.
In each test series, a 21 day-old monolayer was tested for its properties with ^3H-dextran as a permeability marker. The value of the transfer rate (cumulative) had to be in the range of 2% after 120 min.
After eliminating the growth medium from the apical and the basolateral side, the monolayers were rinsed with the transport buffer (Hank's balanced salt solution, pH 7.8; containing 2.8 g/l glucose).The cells were then equilibrated for 15 min at 37° C. under a 10% strength C02 atmosphere. The HBSS buffer was then removed. The test compounds were dissolved in a mixture of HBSS buffer and DMSO and added to the apical buffer such that a 1% strength (v/v) DMSO solution resulted. The test concentration in the first experiment was 1 mM, and 100 μM in the second. The experiments were carried out at 37° C. and started by the addition of 1.5 ml of test solution to the donor side (apical). Transport buffer without compound was added to the recipient side (basolateral, 2.5 ml). At various points in time, samples were taken from the basolateral side (1 ml) and replaced by fresh buffer solution at 37° C. […]
The compounds were analyzed by means of HPLC.
The apparent permeability coefficient (Papp) was calculated by means of the following equation: [formula]
wherein dc/dt is the flow through the monolayer (μg of compound/ml x s), V is the liquid volume in the collection chamber (ml), A is the surface area size of the monolayer (cm^2) and c0 is the initial concentration (μg of compound/ml) in the donor chamber. The flow through the monolayer was calculated from the cumulative basolateral concentration at the appropriate point in time with the aid of the initially linear data curve (linear up to 60 min). The respective determinations were made in triplicate, such that the calculated Papp value represents the mean of three measurements. […]

NHE3 = NHE3 inhibitor; cited from earlier work

| Compound | IC50 (Rat NHE3) [nM] | Absorbed fraction (Caco-2 cell line) [%] | also measured |
| --- | --- | --- | --- |
| c1cncc(CN[C@@H]2C[C@@H]3C[C@H]2[C@@H]2CCCC[C@H]32)c1 (as salt: hydrochloride) [Example 8, exo/endo-(decahydro-1,4-methanonaphthalen-2-yl)-pyridin-3-ylmethyl-amine Hydrochloride] |  |  | melting point: 283 to 285 °C |
| c1cnc(CN[C@@H]2C[C@@H]3C[C@H]2[C@@H]2CCC[C@H]32)cn1 (racemic) [Example 18] |  | 100 |  |
| C/C(=C\c1cc(C)ccc1/C=C(\C)C(=O)NC(=N)N)C(=O)N=C(N)N [S 3226, reference compound] |  | <5 |  |
| CC(C)[C@@H](CC[C@@H](C)[C@H]1CC[C@H]2[C@@H]3[C@H](O)C[C@H]4C[C@@H](NCCCNCCCCN)CC[C@]4(C)[C@H]3CC[C@]12C)OS(=O)(=O)O [squalamine] |  |  | time to reach maximum potency (NHE3): only after approximately one hour |

The next lines start with results.

| IC50 (Rat NHE3) [nM] | Absorbed fraction (Caco-2 cell line) [%] | Compound | also measured |
| --- | --- | --- | --- |
| 340 | 100 | c1cncc(CN[C@@H]2C[C@@H]3C[C@H]2[C@@H]2CCC[C@H]32)c1 (racemic) [Example 1, (rac)-exo/endo-(octahydro-4,7-methanoinden-5-yl)pyridin-3-ylmethylamine Hydrochloride] |  |
| 2100 |  | c1cncc(CN[C@@H]2C[C@@H]3C[C@H]2[C@H]2CCC[C@@H]32)c1 (relative stereo) [Example 6, exo/exo-(octahydro-4,7-methanoinden-5-yl)-pyridin-3-ylmethylamine Hydrochloride] |  |
| 2900 |  | c1csc(CN[C@@H]2C[C@@H]3C[C@H]2[C@@H]2CCC[C@H]32)c1 [Example 5, exo/endo-(octahydro-4,7-methanoinden-5-yl)-thiophen-2-ylmethylamine Hydrochloride] |  |
|  | <1 | C/C(=C\c1cccc(/C=C(\C)C(=O)N=C(N)N)c1)C(=O)N=C(N)N.Cl.Cl [S 2120, reference compound] |  |
